Values quoted from earlier work as cited in patent US20240000727A1, “STABLE COATED SOLID PHARMACEUTICAL COMPOSITION OF AN OPIOID ANALGESIC AND AN ANTI-EPILEPTIC FOR PAIN” (LABORATORIOS SILANES S.A. DE C.V., priority 2020, published 2024).

Tested on: moderate to severe postoperative pain
Conditions: intravenous or intramuscular; patients with moderate to severe postoperative pain

## COc1cccc([C@@]2(O)CCCC[C@@H]2CN(C)C)c1 [tramadol, (1R,2R)-2-[(dimethylamino)methyl]-1-(3-methoxyphenyl)cyclohexan-1-ol]
  Potency relative to nalbuphine: one-fifth as potent
  Potency relative to pethidine (meperidine): equivalent
